These are literature values, as cited in patent US8048872B2, “Treatment of hyperproliferative diseases with vinca alkaloid N-oxide and analogs” (Stat of Oregon Acting by and Through The Oregon State Board …, priority 2006, dated 2011).

Where two headings read alike, the source gives them in different places.

The conditions of this series: cited from earlier work.
Setting [1] is: melanoma, 200 mg/m^2/d PO days 1-5, every 28 days, Grade III-IV.
Where [2] appears, read: melanoma, 200 mg/m^2/d PO days 1-5, every 28 days.

As for `O=c1[nH]cc(F)c(=O)[nH]1` [5-Fluorouracil], for the setting “human, in vivo, iv”, the Diarrhea result is listed as “Diarrhea* 22%”, the “Hand-Foot Syndrome” value is reported as “Syndrome* 14%”, the “Leukopenia/Neutropenia Toxicity” value is on record as “Grade III-IV 0%” and the Stomatitis result is listed as “Stomatitis* 31%”.
Consider “gemtuzumab: Mylotarg, Wyeth-Ayerst [reference compound]”, for which, under “Grade III-IV”, the “Anemia Grade III-IV” value is recorded as 47%, the Chills result is “Chills 13%”, the Dyspnea result is “Dyspnea 9%” and the Fever result is “Fever 15%”. Under “Grade III-IV”, the Hyperbilirubinemia result is reported as “Hyperbilirubinemia 23%”, the Hyperglycemia entry was “Hyperglycemia 12%”, the Leukopenia is recorded as 96% and the Nausea entry is on record as “Nausea 9%”. Also, where the note is “Grade III-IV”, the Neutropenia is 98%, the “Neutropenic Fever” value is recorded as “Neutropenic Fever 7%”, the Pneumonia result is “Pneumonia 7%” and the Sepsis entry was “Sepsis 16%”. The Thrombocytopenia entry (Grade III-IV) was “Thrombocytopenia 99%”. In addition, where the note is “acute myelogenous patients, 9 mg/m^2 IV, two doses 14 days apart”, the “patients with grade III or IV pneumonia” value is given as 7%.
On to `CC1=C(/C=C/C(C)=C/C=C/C(C)=C/C(=O)O)C(C)(C)CCC1` [ATRA], for which, for the setting “Maintenance Therapy (n = 94)”, the Hepatotoxicity entry is given as “Hepatotoxicity 5.3%”, the Infection result was “Infection 7.4%”, the “Life-Threatening Toxicity” value is recorded as “Toxicity 36%” and the Neurotoxicity entry is “Neurotoxicity 11.7%”.
Consider `CC(=O)O[C@@]12CO[C@@H]1C[C@H](O)[C@@]1(C)C(=O)[C@H](O)C3=C(C)[C@@H](OC(=O)[C@H](O)[C@@H](NC(=O)OC(C)(C)C)c4ccccc4)C[C@@](O)([C@@H](OC(=O)c4ccccc4)[C@H]21)C3(C)C` [Docetaxel], for which, for the setting “Grade III-IV”, the Alopecia entry is “Alopecia 13%”, the Asthenia result is on record as “Asthenia 16%”, the Diarrhea entry is recorded as “Diarrhea 8%” and the Fatigue/Asthenia result is listed as “Fatigue/Asthenia 10%”. Also, for the setting “Grade III-IV”, the “Febrile Neutropenia” value is listed as “Febrile Neutropenia 33%”, the “Hypersensitivity Reaction” value is recorded as “Reactions 3%”, the “Leukopenia/Neutropenia Toxicity” value is reported as “Grade III-IV 93%” and the Nausea entry is recorded as “Nausea 5%”. For the same molecule, for the setting “Grade III-IV”, the Nausea/Emesis result is on record as “Nausea/Emesis 10%”, the Neuropathy result is recorded as “Neuropathy 3%”, the Neurosensory result is “Neurosensory 5%” and the “Neutropenic Fever” value is given as “Neutropenic Fever 9%”. Moreover, under “Grade III-IV”, the “Severe Fluid Retention” value is 8%, the Stomatitis entry is “Stomatitis 9%”, the Thrombocytopenia entry is given as “Thrombocytopenia 4%” and the Vomiting entry is “Vomiting 3%”. In addition, for the setting “Grade III”, the Granulocytopenia entry is “Grade III 6%”, the Leukopenia result is “Grade III 8%” and the Thrombocytopenia result is reported as “(Grade III) 6%”. Further, the Granulocytopenia result (Grade IV) was “Grade IV 72%”. Also, where the note is “human, in vivo, iv”, the “Neutropenic Infection” value was “(Grade III-IV) 11%”.
Consider Liposomal doxorubicin, for which, where the note is “human, in vivo, iv”, the “Anemia Grade III-IV” value was 9.8%, the Leukopenia entry is listed as “Leukopenia 36%”, the Mucositis result is on record as “Mucositis 5%” and the Nausea/Vomiting entry was “Nausea/Vomiting 15%”. Besides, where the note is “human, in vivo, iv”, the “Neutropenia Grade IV” value is given as “Grade IV 6%”, the “Neutropenic Fever” value is listed as “Neutropenic Fever 11%”, the “Palmar-Plantar Erythrodysesthesia” value is “Erythrodysesthesia 29%” and the “Peripheral Neuropathy” value is recorded as 6%. Besides, where the note is “human, in vivo, iv”, the Stomatitis result was “Stomatitis 14%” and the Thrombocytopenia result was “Thrombocytopenia 3%”.
With `CC(=O)O[C@H]1C(=O)[C@@]2(C)[C@H]([C@H](OC(=O)c3ccccc3)[C@]3(O)C[C@H](OC(=O)[C@H](O)[C@@H](NC(=O)c4ccccc4)c4ccccc4)C(C)=C1C3(C)C)[C@]1(OC(C)=O)CO[C@@H]1C[C@@H]2O` [Paclitaxel], where the note is “human, in vivo, iv”, the “Increased AST” value is “Increased AST 5%” and the “Leukopenia/Neutropenia Toxicity” value is on record as “Grade III-IV 23%”.
Regarding Arsenic trioxide, where the note is “Grade III-IV”, the “Anemia Grade III-IV” value is listed as “Anemia Grade III-IV 5%”, the Arthralgia/Myalgia result is reported as “Arthralgia/Mylagia 13%”, the Convulsions entry is “Convulsions 5%” and the “Disseminated Intravascular Coagulation” value is on record as 8%. Besides, where the note is “Grade III-IV”, the Dyspnea entry is reported as “Dyspnea 10%”, the “Febrile Neutropenia” value is “Febrile Neutropenia 8%”, the Fever entry is on record as “Fever 5%” and the Hyperglycemia entry was “Hyperglycemia 13%”. Where the note is “Grade III-IV”, the Hypokalemia result was “Hypokalemia 13%”, the Hypomagnesemia result is reported as “Hypomagnesemia 13%”, the Hypoxia result is reported as “Hypoxia 10%” and the Leukocytosis result is given as “Leukocytosis 3%”. Further, for the setting “Grade III-IV”, the Neutropenia is listed as 10%, the Paresthesias entry is reported as “Paresthesias 5%”, the Sepsis entry is “Sepsis 5%” and the Thrombocytopenia entry was “Thrombocytopenia 12%”.
`Nc1nc(Cl)nc2c1ncn2[C@H]1C[C@H](O)[C@@H](CO)O1` [Cladribine]: under “Grade III-IV”, the “Anemia Grade III-IV” value is 22%, the “Documented Infection” value is “Infections 13%”, the “Leukopenia/Neutropenia Toxicity” value is “Grade III-IV 87%” and the “Neutropenic Fever” value is recorded as “Neutropenic Fever 42%”. Also, the Thrombocytopenia result (Grade III-IV) was “Thrombocytopenia 20%”.
Turning to `COc1cccc2c1C(=O)c1c(O)c3c(c(O)c1C2=O)C[C@@](O)(C(=O)CO)C[C@@H]3O[C@H]1C[C@H](N)[C@H](O)[C@H](C)O1` [Doxorubicin], for the setting “human, in vivo, iv”, the Cardiotoxicity entry is “Cardiotoxicity 1%”, the Gastrointestinal result is “Gastrointestinal 3%”, the Infection entry was “Infection 3%” and the “Leukopenia/Neutropenia Toxicity” value was “Grade III-IV 8%”. Moreover, where the note is “human, in vivo, iv”, the “Leukopenia/Neutropenia Toxicity Grade III-IV” value is “Grade III-IV 51%”, the “Leukopenia/Neutropenia Toxicity Grade IV” value was “Grade IV 21%”, the Mucositis result was “Mucositis 6%” and the Nausea/Vomiting result is reported as “Nausea/Vomiting 13%”. The Thrombocytopenia result (human, in vivo, iv) is reported as “Thrombocytopenia 2%”.
Regarding `Cn1nnc2c(C(N)=O)ncn2c1=O` [Temozolomide], where the note is “Grade III-IV”, the “Anemia Grade III-IV” value is “Anemia Grade III-IV 1%”, the Asthenia result is “Asthenia 6%”, the Fatigue result was “Fatigue 5%” and the Fever entry is on record as “Fever 2%”. For the setting “Grade III-IV”, the Headache entry was “Headache 6%”, the Nausea result is listed as “Nausea 10%”, the Thrombocytopenia result is reported as “Thrombocytopenia 6%” and the Vomiting entry is reported as “Vomiting 6%”. Moreover, for the setting “grade not given”, the Leukopenia entry was “Leukopenia 2%” and the Neutropenia entry is listed as “Neutropenia 2%”. Under setting [1], the Fever entry is given as “Fever 2%”, the Headache result is “Headache 6%”, the Thrombocytopenia result is given as “Thrombocytopenia 7%” and the Vomiting result is listed as “Vomiting 5%”. Besides, under setting [2], the “Anemia Grade III-IV” value is given as “Anemia Grade III-IV 2%”, the “Asthenia (Grade III)” value was “Asthenia (Grade III) 3%”, the “Constipation (Grade III)” value is recorded as “(Grade III) 3%” and the “Fatigue (Grade III)” value is “Fatigue (Grade III) 3%”. Further, under setting [2], the “Nausea (Grade III)” value is reported as “Nausea (Grade III) 4%”, the “Neutropenia Grade III” value is on record as “Grade III 1%”, the “Neutropenia Grade IV” value was “Grade IV 2%” and the “Pain (Grade III)” value is “Pain (Grade III) 7%”.
